Measurements reported in US20210255193A1, “LYSINE REACTIVE PROBES AND USES THEREOF” (The Scripps Research Institute, priority 2017, published 2021).
Blank lines part the entries; values can stand above or below the compound they belong to.

Columns and labels:
Assay in all cases: competitive isoTOP-ABPP
Format in all cases: binding
[1] = biological target: T1, NT5DC1 5-nucleotidase domain-containing protein 1 (Homo sapiens, UniProt Q5TFE4); details: for R value (DMSO/fragment) for probe 1 labeling: Q5TFE4_K123; for R value (DMSO/fragment) for probe 1 labeling / isoTOP-ABPP reactivity ratio at lysine Q5TFE4_K123: 231 sol
T1 construct: isoTOP-ABPP experiments performed in cell lysates (in vitro); endogenous in cells; host or cells: soluble proteome of human cancer cell lines (MDA-MB-231; Ramos and Jurkat also prepared)
T1 sequence (Q5TFE4 1-455): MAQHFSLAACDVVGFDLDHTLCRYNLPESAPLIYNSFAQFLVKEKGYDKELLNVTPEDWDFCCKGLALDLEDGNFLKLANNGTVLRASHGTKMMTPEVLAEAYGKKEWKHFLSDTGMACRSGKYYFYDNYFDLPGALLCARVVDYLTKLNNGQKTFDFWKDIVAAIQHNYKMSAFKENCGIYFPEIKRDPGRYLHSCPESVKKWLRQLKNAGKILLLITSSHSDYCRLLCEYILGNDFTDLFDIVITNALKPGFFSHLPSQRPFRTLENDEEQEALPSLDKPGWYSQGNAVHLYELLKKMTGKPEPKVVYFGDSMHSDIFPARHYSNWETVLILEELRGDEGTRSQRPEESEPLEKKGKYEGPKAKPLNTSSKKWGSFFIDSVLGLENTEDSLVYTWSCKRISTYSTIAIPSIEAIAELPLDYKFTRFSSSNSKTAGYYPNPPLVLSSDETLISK
Method in brief: (§1)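 Readout: isotopic light/heavy MS1 peak-area ratio (R, DMSO heavy over compound light), median across peptides sharing a modified lysine. Lysate received fragment (activated esters 50 μM, guanidinylating agents 100 μM final) or DMSO, then 0.1 mM STP-alkyne probe for 1 h at ambient temperature.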

[2] = biological target: T2, SLC25A5 ADP/ATP translocase 2 (Homo sapiens, UniProt P05141); details: for isoTOP-ABPP ratio (R) at liganded lysine P05141_K23 / isoTOP-ABPP reactivity ratio at lysine P05141_K23: 50 uM, in vitro; for isoTOP-ABPP ratio (R) at liganded lysine P05141_K23: sol, 231; for isoTOP-ABPP reactivity ratio at lysine P05141_K23: 231 sol
T2 construct: isoTOP-ABPP experiments performed in cell lysates (in vitro); endogenous in cells; host or cells: MDA-MB-231 soluble lysate
T2 sequence (P05141 1-298): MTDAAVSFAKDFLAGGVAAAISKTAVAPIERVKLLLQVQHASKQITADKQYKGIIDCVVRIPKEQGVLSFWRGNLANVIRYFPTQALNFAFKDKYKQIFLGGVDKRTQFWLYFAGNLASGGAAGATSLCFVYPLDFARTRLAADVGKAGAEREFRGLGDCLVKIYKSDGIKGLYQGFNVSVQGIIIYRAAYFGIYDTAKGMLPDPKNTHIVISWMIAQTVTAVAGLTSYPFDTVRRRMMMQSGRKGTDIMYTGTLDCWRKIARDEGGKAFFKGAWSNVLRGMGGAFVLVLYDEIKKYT
Method in brief: as §1

[3] = biological target: T3, SMPD1 Sphingomyelin phosphodiesterase (Homo sapiens, UniProt P17405); details: for isoTOP-ABPP ratio (R) at liganded lysine P17405_K118: sol, 231
T3 construct: isoTOP-ABPP experiments performed in cell lysates (in vitro); endogenous in cells; host or cells: soluble proteome of human cancer cell lines (MDA-MB-231; Ramos and Jurkat also prepared)
T3 sequence (P17405 47-631): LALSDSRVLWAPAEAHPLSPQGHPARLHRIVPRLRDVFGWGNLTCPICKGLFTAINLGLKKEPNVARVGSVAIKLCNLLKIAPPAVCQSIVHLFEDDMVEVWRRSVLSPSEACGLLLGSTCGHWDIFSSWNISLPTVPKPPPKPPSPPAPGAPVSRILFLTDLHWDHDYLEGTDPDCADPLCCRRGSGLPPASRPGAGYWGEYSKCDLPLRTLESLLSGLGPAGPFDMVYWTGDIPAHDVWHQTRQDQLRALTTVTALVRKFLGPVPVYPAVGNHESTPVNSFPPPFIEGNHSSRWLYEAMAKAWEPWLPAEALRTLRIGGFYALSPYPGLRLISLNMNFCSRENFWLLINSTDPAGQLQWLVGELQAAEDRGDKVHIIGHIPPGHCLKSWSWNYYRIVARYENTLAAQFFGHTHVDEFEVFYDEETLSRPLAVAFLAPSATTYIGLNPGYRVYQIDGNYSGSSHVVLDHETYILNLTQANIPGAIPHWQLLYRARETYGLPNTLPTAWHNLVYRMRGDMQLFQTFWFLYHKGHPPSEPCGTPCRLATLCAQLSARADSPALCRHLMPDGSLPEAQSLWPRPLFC
Method in brief: as §1

R value (DMSO/fragment) for probe 1 labeling ([1]; 50 uM, in vitro): 1.5
SMILES: COc1cc(CCC(=O)Oc2c(F)c(F)c(F)c(F)c2F)cc(OC)c1OC [fragment 23, Pentafluorophenyl 3-(3,4,5-trimethoxyphenyl)propanoate]

SMILES: O=C(Oc1ccc([N+](=O)[O-])cc1[N+](=O)[O-])c1ccc2ccccc2n1 [fragment 35, 2,4-Dinitrophenyl quinoline-2-carboxylate]
isoTOP-ABPP ratio (R) at liganded lysine P05141_K23 [2]: 1.1
isoTOP-ABPP ratio (R) at liganded lysine P17405_K118 ([3]; 50 uM, in vitro): 1.4

isoTOP-ABPP reactivity ratio at lysine Q5TFE4_K123 ([1]; 50 uM, in vitro): 1.1
SMILES: O=C(Oc1c(F)c(F)c(F)c(F)c1F)C1CCN(C(=O)OCc2ccccc2)CC1 [fragment 24, 1-Benzyl 4-(pentafluorophenyl) piperidine-1,4-dicarboxylate]

R value (DMSO/fragment) for probe 1 labeling ([1]; 50 uM, in vitro): 1.0
R value (DMSO/fragment) for probe 1 labeling ([3]; P17405_K118, 50 uM, 231 sol, in vitro): 1.4
SMILES: O=C(Oc1c(F)c(F)c(F)c(F)c1F)C(c1ccccc1)c1ccccc1 [fragment 20, Pentafluorophenyl 2,2-diphenylacetate]

SMILES: O=C(Oc1ccc([N+](=O)[O-])cc1[N+](=O)[O-])c1cc(C(F)(F)F)cc(C(F)(F)F)c1 [fragment 31, 2,4-Dinitrophenyl 3,5-bis(trifluoromethyl)benzoate]
isoTOP-ABPP reactivity ratio at lysine P05141_K23 [2]: 1.5

isoTOP-ABPP ratio, lysine Q5TFE4_K123 ([1]; 100 uM_231_sol_in vitro): 1.1
isoTOP-ABPP ratio, lysine P05141_K23 ([2]; 100 uM_231_sol_in vitro): 12.6
isoTOP-ABPP ratio, lysine P17405_K118 ([3]; 100 uM_231_sol_in vitro): 1.3
SMILES: CC(C)(C)OC(=O)N=C(NC(=O)OC(C)(C)C)n1cccn1 [fragment 50, reference compound]

SMILES: O=C(Oc1ccc([N+](=O)[O-])cc1[N+](=O)[O-])c1ccccc1Nc1cccc(C(F)(F)F)c1 [fragment 40, 2,4-Dinitrophenyl 2-((3-(trifluoromethyl)phenyl)amino)benzoate]
isoTOP-ABPP ratio (R) at liganded lysine P05141_K23 [2]: 0.8

SMILES: N#Cc1ccc(C(=O)Oc2ccc([N+](=O)[O-])cc2[N+](=O)[O-])cc1 [fragment 44, 2,4-Dinitrophenyl 4-cyanobenzoate]
isoTOP-ABPP ratio, lysine P05141_K23 ([2]; 50 uM_231_sol_in vitro): 1.1
isoTOP-ABPP ratio, lysine P17405_K118 ([3]; 50 uM_231_sol_in vitro): 0.8

SMILES: O=C(Oc1ccc([N+](=O)[O-])cc1[N+](=O)[O-])C(c1ccccc1)c1ccccc1 [fragment 30, 2,4-Dinitrophenyl 2,2-diphenylacetate]
isoTOP-ABPP reactivity ratio at lysine P05141_K23 [2]: 2.2

SMILES: O=C(ON1C(=O)CCC1=O)c1cc(C(F)(F)F)cc(C(F)(F)F)c1 [fragment 46, 3,5-Bis(trifluoromethyl)benzoic acid NHS ester]
isoTOP-ABPP ratio, lysine Q5TFE4_K123 ([1]; 50 uM_231_sol_in vitro): 20.0
isoTOP-ABPP ratio, lysine P05141_K23 ([2]; 50 uM_231_sol_in vitro): 0.9
isoTOP-ABPP ratio, lysine P17405_K118 ([3]; 50 uM_231_sol_in vitro): 0.7

SMILES: O=C(Oc1ccc([N+](=O)[O-])cc1[N+](=O)[O-])c1ccc(Oc2ccccc2)cc1 [fragment 39, 2,4-Dinitrophenyl 4-phenoxybenzoate]
isoTOP-ABPP ratio (R) at liganded lysine P05141_K23 [2]: 0.9
isoTOP-ABPP ratio (R) at liganded lysine P17405_K118 ([3]; 50 uM, in vitro): 0.8

SMILES: O=C(Oc1ccc([N+](=O)[O-])cc1[N+](=O)[O-])c1ccc(-c2ccccc2)cc1 [fragment 37, 2,4-Dinitrophenyl [1,1′-biphenyl]-4-carboxylate]
isoTOP-ABPP ratio (R) at liganded lysine Q5TFE4_K123 ([1]; 50 uM, in vitro, sol, 231): 1.8
isoTOP-ABPP ratio (R) at liganded lysine P05141_K23 [2]: 1.2

SMILES: CC(=O)Oc1ccc([N+](=O)[O-])cc1[N+](=O)[O-] [fragment 43, 2,4-Dinitrophenyl acetate]
isoTOP-ABPP ratio (R) at liganded lysine P05141_K23 [2]: 0.9

isoTOP-ABPP reactivity ratio at lysine Q5TFE4_K123 ([1]; 50 uM, in vitro): 1.2
isoTOP-ABPP reactivity ratio at lysine P05141_K23 [2]: 1.0
SMILES: CCn1cc(C(=O)Oc2c(F)c(F)c(F)c(F)c2F)c(=O)c2ccc(C)nc21 [fragment 28, Pentafluorophenyl 1-ethyl-7-methyl-4-oxo-1,4-dihydro-1,8-naphthyridine-3-carboxylate]
